Measured values taken from ChEMBL document CHEMBL1201862, “PubChem BioAssay data set” (2004).
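Five concentrations, 48 hours, 96-well plates. Abbreviation: GI50, concentration required for 50% inhibition of growth.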 Calls of active or inactive are those of the source. No stated cut-off is given here; in the data, active = GI50 up to about 1.1 µM and inactive = higher.

How the values were obtained:
Assay in all cases: NCI anticancer screen, dose series, 48 h
786-0 = system: 786-0
ACHN = system: ACHN
BT-549 = system: BT-549
DU-145 = system: DU-145
EKVX = system: EKVX
HOP-92 = system: HOP-92
PC-3 = system: PC-3
RXF 393 = system: RXF 393
SF-295 = system: SF-295
SK-MEL-5 = system: SK-MEL-5
SW-620 = system: SW-620
TK-10 = system: TK-10
UACC-257 = system: UACC-257
HCC 2998 = system: HCC 2998
HCT-116 = system: HCT-116
MDA-N = system: MDA-N
NCI/ADR-RES = system: NCI/ADR-RES
RPMI-8226 = system: RPMI-8226
Malme-3M = system: Malme-3M

Q: What does the source list for `COc1cc(C2C(Cl)C(=O)N2NC(=O)c2ccccc2O)cc(OC)c1OC` (configuration not stated)?
A: GI50 (786-0): > 10 µM (inactive); GI50 (ACHN): 3.79 µM (inactive); GI50 (BT-549): > 10 µM (inactive); GI50 (DU-145): 0.284 µM (active); GI50 (EKVX): 5.27 µM (inactive); GI50 (HOP-92): 5.66 µM (inactive); GI50 (PC-3): 3.52 µM (inactive); GI50 (RXF 393): > 10 µM (inactive); GI50 (SF-295): 1.8 µM (inactive); GI50 (SK-MEL-5): 5.07 µM (inactive); GI50 (SW-620): 2.63 µM (inactive); GI50 (TK-10): 8.51 µM (inactive); GI50 (UACC-257): 1.89 µM (inactive)

Q: Which results are given for `O=C1/C(=C/c2ccc([N+](=O)[O-])cc2)Oc2cc(O)ccc21`?
A: GI50 (786-0): 22.2 µM (inactive); GI50 (ACHN): 25.4 µM (inactive); GI50 (BT-549): 25.9 µM (inactive); GI50 (DU-145): 33.7 µM (inactive); GI50 (EKVX): 33.7 µM (inactive); GI50 (HCC 2998): 34.6 µM (inactive); GI50 (HCT-116): 26.2 µM (inactive); GI50 (MDA-N): 23.2 µM (inactive); GI50 (NCI/ADR-RES): 28.8 µM (inactive); GI50 (PC-3): 29.3 µM (inactive); GI50 (RPMI-8226): 22.5 µM (inactive); GI50 (RXF 393): 45 µM (inactive); GI50 (SF-295): 37.8 µM (inactive); GI50 (SK-MEL-5): 21 µM (inactive); GI50 (SW-620): 41 µM (inactive); GI50 (TK-10): 27.4 µM (inactive); GI50 (UACC-257): 37.7 µM (inactive)

Q: For `CSc1ncnc2c1cnn2Cc1cn(CCCCO)nn1`, which GI50 (786-0) is on record?
A: > 100 µM (inactive)

Q: What about the GI50 (ACHN) of the same compound?
A: > 100 µM (inactive)

Q: What about the GI50 (BT-549) of the same compound?
A: > 100 µM (inactive)

Q: What about the GI50 (DU-145) of the same compound?
A: > 100 µM (inactive)

Q: And the GI50 (EKVX)?
A: > 100 µM (inactive)

Q: What about the GI50 (HCC 2998) of the same compound?
A: > 100 µM (inactive)

Q: What about the GI50 (HCT-116) of the same compound?
A: > 100 µM (inactive)

Q: And the GI50 (HOP-92)?
A: > 100 µM (inactive)

Q: And the GI50 (MDA-N)?
A: > 100 µM (inactive)

Q: What about the GI50 (Malme-3M) of the same compound?
A: > 100 µM (inactive)

Q: And the GI50 (PC-3)?
A: > 100 µM (inactive)

Q: What about the GI50 (RPMI-8226) of the same compound?
A: > 100 µM (inactive)

Q: And the GI50 (RXF 393)?
A: > 100 µM (inactive)

Q: What about the GI50 (SF-295) of the same compound?
A: > 100 µM (inactive)

Q: What about the GI50 (SK-MEL-5) of the same compound?
A: > 100 µM (inactive)

Q: What about the GI50 (SW-620) of the same compound?
A: > 100 µM (inactive)

Q: What about the GI50 (TK-10) of the same compound?
A: > 100 µM (inactive)

Q: What about the GI50 (UACC-257) of the same compound?
A: > 100 µM (inactive)

Q: Which results are given for `CC1(C)O[C@@H](CP(c2ccc3ccccc3c2)c2ccc3ccccc3c2)[C@H](CP(c2ccc3ccccc3c2)c2ccc3ccccc3c2)O1`?
A: GI50 (786-0): > 100 µM (inactive); GI50 (ACHN): > 100 µM (inactive); GI50 (BT-549): > 100 µM (inactive); GI50 (DU-145): > 100 µM (inactive); GI50 (EKVX): > 100 µM (inactive); GI50 (HCC 2998): > 100 µM (inactive); GI50 (HCT-116): > 100 µM (inactive); GI50 (MDA-N): > 100 µM (inactive); GI50 (NCI/ADR-RES): > 100 µM (inactive); GI50 (PC-3): 53.5 µM (inactive); GI50 (RXF 393): > 100 µM (inactive); GI50 (SF-295): > 100 µM (inactive); GI50 (SK-MEL-5): 73.5 µM (inactive); GI50 (SW-620): > 100 µM (inactive); GI50 (TK-10): > 100 µM (inactive); GI50 (UACC-257): > 100 µM (inactive)

Q: `CSc1nn(C)cc2nc(C)nc1-2` was tested. Which GI50 (786-0) did it give?
A: > 100 µM (inactive)

Q: And the GI50 (ACHN)?
A: > 100 µM (inactive)

Q: What about the GI50 (BT-549) of the same compound?
A: > 100 µM (inactive)

Q: What about the GI50 (DU-145) of the same compound?
A: > 100 µM (inactive)

Q: And the GI50 (EKVX)?
A: > 100 µM (inactive)

Q: And the GI50 (HCT-116)?
A: > 100 µM (inactive)

Q: And the GI50 (MDA-N)?
A: > 100 µM (inactive)

Q: What about the GI50 (NCI/ADR-RES) of the same compound?
A: > 100 µM (inactive)

Q: And the GI50 (PC-3)?
A: > 100 µM (inactive)

Q: What about the GI50 (RPMI-8226) of the same compound?
A: > 100 µM (inactive)

Q: And the GI50 (RXF 393)?
A: > 100 µM (inactive)

Q: And the GI50 (SF-295)?
A: > 100 µM (inactive)

Q: What about the GI50 (SK-MEL-5) of the same compound?
A: > 100 µM (inactive)

Q: And the GI50 (SW-620)?
A: > 100 µM (inactive)

Q: What about the GI50 (TK-10) of the same compound?
A: > 100 µM (inactive)

Q: And the GI50 (UACC-257)?
A: > 100 µM (inactive)

Q: What does the source list for `S=C1NC2=C(COc3ccccc32)C(c2ccc(Cl)cc2)N1` (configuration not stated)?
A: GI50 (786-0): 19.2 µM (inactive); GI50 (ACHN): 22.9 µM (inactive); GI50 (BT-549): 21.1 µM (inactive); GI50 (DU-145): 19.9 µM (inactive); GI50 (EKVX): 17.1 µM (inactive); GI50 (HCT-116): 15.5 µM (inactive); GI50 (HOP-92): > 10 µM (inactive); GI50 (MDA-N): 16.4 µM (inactive); GI50 (NCI/ADR-RES): 18.9 µM (inactive); GI50 (PC-3): 13.4 µM (inactive); GI50 (RPMI-8226): 5.78 µM (inactive); GI50 (RXF 393): 15.5 µM (inactive); GI50 (SF-295): 13.8 µM (inactive); GI50 (SK-MEL-5): 15 µM (inactive); GI50 (SW-620): 28.6 µM (inactive); GI50 (UACC-257): 21.2 µM (inactive)

Q: For `COc1cc(C(C)=O)cc(C(=O)N(C(C)C)C(C)C)c1[Si](C)(C)C`, which GI50 (786-0) is on record?
A: > 100 µM (inactive)

Q: What about the GI50 (ACHN) of the same compound?
A: > 100 µM (inactive)

Q: What about the GI50 (BT-549) of the same compound?
A: > 100 µM (inactive)

Q: And the GI50 (DU-145)?
A: > 100 µM (inactive)

Q: What about the GI50 (HCT-116) of the same compound?
A: > 100 µM (inactive)

Q: What about the GI50 (HOP-92) of the same compound?
A: 99.3 µM (inactive)

Q: And the GI50 (MDA-N)?
A: > 100 µM (inactive)

Q: What about the GI50 (PC-3) of the same compound?
A: > 100 µM (inactive)

Q: What about the GI50 (SF-295) of the same compound?
A: > 100 µM (inactive)

Q: What about the GI50 (SK-MEL-5) of the same compound?
A: > 100 µM (inactive)

Q: What about the GI50 (SW-620) of the same compound?
A: > 100 µM (inactive)

Q: And the GI50 (TK-10)?
A: > 100 µM (inactive)

Q: And the GI50 (UACC-257)?
A: > 100 µM (inactive)

Q: Which results are given for `CC(C)(C)c1cc(C(C)(C)C)c(SSc2c(C(C)(C)C)cc(C(C)(C)C)c(O)c2O)c(O)c1O`?
A: GI50 (786-0): 6.4 µM (inactive); GI50 (ACHN): 11.4 µM (inactive); GI50 (BT-549): 13.8 µM (inactive); GI50 (EKVX): 16.4 µM (inactive); GI50 (HCT-116): 10.9 µM (inactive); GI50 (HOP-92): 17.7 µM (inactive); GI50 (MDA-N): 10.4 µM (inactive); GI50 (Malme-3M): 21.4 µM (inactive); GI50 (NCI/ADR-RES): 19.1 µM (inactive); GI50 (PC-3): 12.4 µM (inactive); GI50 (RPMI-8226): 9.29 µM (inactive); GI50 (RXF 393): 16.4 µM (inactive); GI50 (SK-MEL-5): 11.7 µM (inactive); GI50 (SW-620): 4.99 µM (inactive); GI50 (UACC-257): 9.95 µM (inactive)

Q: Which results are given for `N#CC1C(=O)SC2c3ccccc3C(=O)c3ccccc3C12` (configuration not stated)?
A: GI50 (786-0): > 10 µM (inactive); GI50 (ACHN): > 10 µM (inactive); GI50 (BT-549): > 10 µM (inactive); GI50 (DU-145): > 10 µM (inactive); GI50 (EKVX): > 10 µM (inactive); GI50 (HCC 2998): > 10 µM (inactive); GI50 (HCT-116): > 10 µM (inactive); GI50 (MDA-N): > 10 µM (inactive); GI50 (Malme-3M): > 10 µM (inactive); GI50 (NCI/ADR-RES): > 10 µM (inactive); GI50 (PC-3): > 10 µM (inactive); GI50 (RPMI-8226): > 10 µM (inactive); GI50 (RXF 393): > 10 µM (inactive); GI50 (SF-295): > 10 µM (inactive); GI50 (SK-MEL-5): > 10 µM (inactive); GI50 (SW-620): > 10 µM (inactive); GI50 (TK-10): > 10 µM (inactive); GI50 (UACC-257): > 10 µM (inactive)
